The values below come from patent US20230040021A1 (priority 2019, published 2023).

For assay [1], the system named is HBcAg antigen-specific IFN-γ. Set-up: species or system C57BL/6(N) mice. The conditions noted are these: mouse, in vivo.
Assay [2] deals with HBsAg antigen-specific IFN-γ. More on the design: species or system C57BL/6(N) mice. Conditions: mouse, in vivo.
In assay [3] the test system is herpes gE antigen-specific IFN-γ. The conditions noted are these: CpG T1 10 + saponin 5 + gE 5 μg/mouse; FIG. 15.
Description: Experimental steps: on Day 7 after the immunization of mice, the spleen lymphocytes were prepared according to a conventional method, and the details were as follows: the spleens were taken aseptically by being cut with sterile forceps and scissors, and placed in a 70 μm cell strainer, which was placed in a plate containing 2 ml of pre-chilled 2% FBS (purchased from GIBCO)-PBS; the spleens were ground using a grinding rod, and the spleen cells entered the plate through the meshes to obtain a cell suspension, and then the suspension was filtered by a 40 μm cell strainer (purchased from BD) and put into a 50 ml sterile centrifuge tube by using a Pasteur pipet; it was centrifuged at 500×g at 4° C. for 5 min; the supernatant was discarded, and then 2 ml of 1×erythrocyte disruption agent (purchased from BD) was added to re-suspend the cells, and the resultant was allowed to stand for 5 min at 4° C., protected from light to disrupt the red blood cells; 10 ml of 2% FBS-PBS was added to terminate the erythrocyte disruption reaction; the resultant was centrifuged at 500×g at 4° C. for 5 min, the supernatant was discarded, and then 5 ml of 2% FBS-PBS was added to re-suspend the cells for later use.
C57BL/6(N) mice, female, 5 weeks old, 48 mice, purchased from Shanghai SLRC Laboratory Animal Co. Ltd.
2) QS-21 (CAS: NO. […]

Regarding “TGACTGTGAACGTTCGAGATGA (SEQ ID NO: 3) [CpG 1018]”, the “immune effect: induced production level of HBcAg-specific IFN-γ” value (“immune effect … of HBcAg-specific IFN-γ” below) in assay [1] was “superior to the CpG adjuvants of type A and the CpG adjuvants of type C”. In addition, in assay [2], the “immune effect: induced production level of HBsAg-specific IFN-γ” value (“immune effect … of HBsAg-specific IFN-γ” for short) is “superior to the CpG adjuvants of type A and the CpG adjuvants of type C”.

Regarding QS-21 [QS21], the “induced production level of gE-specific IFN-γ” value in assay [3] is “the best effect”.

For the substance “TCGTCGTTTTGTCGTTTTGTCGTT (SEQ ID NO: 4) [CpG 7909]”, the “immune effect … of HBcAg-specific IFN-γ” value in assay [1] was “superior to the CpG adjuvants of type A and the CpG adjuvants of type C”. Further, in assay [2], the “immune effect … of HBsAg-specific IFN-γ” value was “superior to the CpG adjuvants of type A and the CpG adjuvants of type C”.

Consider “TCCATGACGTTCCTGACGTT (SEQ ID NO: 5) [CpG 1826]”, for which, in assay [1], the “immune effect … of HBcAg-specific IFN-γ” value is “superior to the CpG adjuvants of type A and the CpG adjuvants of type C”. For the same substance, the “immune effect … of HBsAg-specific IFN-γ” value in assay [2] is “superior to the CpG adjuvants of type A and the CpG adjuvants of type C”.

In the case of “TCGACGTTCGTCGTTCGTCGTTC (SEQ ID NO: 9) [CpG 684]”, the “immune effect … of HBcAg-specific IFN-γ” value in assay [1] was “superior to the CpG adjuvants of type A and the CpG adjuvants of type C”. For the same substance, in assay [2], the “immune effect … of HBsAg-specific IFN-γ” value was “superior to the CpG adjuvants of type A and the CpG adjuvants of type C”.

With “TGTCGTCGTCGTTTGTCGTTTGTCGTT (SEQ ID NO: 11) [CPG D2]”, in assay [1], the “immune effect … of HBcAg-specific IFN-γ” value is “lower than those induced by the CpG adjuvants of type A and the CpG adjuvants of type C”. Also, the “immune effect … of HBsAg-specific IFN-γ” value in assay [2] is “lower than those induced by the CpG adjuvants of type A and the CpG adjuvants of type C”.
